In ChEMBL document CHEMBL1201862, “PubChem BioAssay data set” (2004):
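Five concentrations, 48 hours, 96-well plates. Abbreviation: GI50, concentration required for 50% inhibition of growth.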 The source made the active and inactive calls. No stated cut-off is given here; in the data, active = GI50 up to about 1.1 µM and inactive = higher.

Tests used:
Assay in all cases: growth of human tumour cells (NCI), 48 h
RXF 631 = tested on: RXF 631
LXFL 529 = tested on: LXFL 529
DMS-114 = tested on: DMS-114
DMS-273 = tested on: DMS-273
HOP-18 = tested on: HOP-18

Measured: GI50

CC(C)=CC(=O)N1CCN(C(=O)C=C(C)C)CC1
inactive: RXF 631 > 100 µM | LXFL 529 > 100 µM | DMS-114 > 100 µM | DMS-273 > 100 µM | HOP-18 > 100 µM

N#CC(C#N)=Cc1ccc(Oc2ccccc2)cc1
inactive: RXF 631 36.3 µM | LXFL 529 25.8 µM | DMS-114 26.2 µM | DMS-273 18.3 µM | HOP-18 33.4 µM

O=C1CN=C(C[N+](=O)[O-])c2ccccc21
inactive: RXF 631 > 100 µM | LXFL 529 > 100 µM | DMS-114 > 100 µM | DMS-273 > 100 µM | HOP-18 > 100 µM

O=C1C2C3CC(C4C5C=CC(C5)C34)C2C2C3CC(C12)C1C2C=CC(C2)C31 (stereo not given)
inactive: RXF 631 > 100 µM | LXFL 529 > 100 µM | DMS-114 > 100 µM | DMS-273 > 100 µM | HOP-18 > 100 µM

CSc1ccc2c(cc1=O)[C@@H](NC(=O)c1cccc([N+](=O)[O-])c1)CCc1cc(O)c(O)c(O)c1-2
inactive: RXF 631 36.1 µM | LXFL 529 35.8 µM | DMS-114 24.4 µM | DMS-273 32 µM | HOP-18 > 100 µM
